≈ marks a conversion by molar mass, not a printed value. Entries after “also recorded” stand apart in the source; their conditions may differ.
Assays:
[1] = Solid-state stability study, accelerated conditions (40° C./75% RH, 4 months); assay type: physicochemical; details: for stability to polymorph conversion or hydrate formation on long storage (summary of Tables 4 and 5): 4 months accelerated conditions and 6 months ambient conditions; for Appearance / XRPD analysis: 40° C./75% RH - 4 months, sealed container
Protocol: A study was carried out to examine the physical stability of the olaparib oxalic acid cocrystals with respect to solid form conversion or signs of decomposition over time under both ambient and accelerated conditions. 50 mg each of the 2:3 olaparib oxalic acid cocrystal, 1:1 olaparib oxalic acid cocrystal, and 2:1 olaparib oxalic acid cocrystal were separately placed in a sealed container at 40° C. and 75% relative humidity and stored under these conditions for 4 months. After this time, all samples remained as white solids with no signs of deliquescence.

[2] = Solid-state stability study, ambient conditions (6 months); assay type: physicochemical; details: clear glass vial
Protocol: A second stability study was carried out where 50 mg each of the 2:3 olaparib oxalic acid cocrystal, 1:1 olaparib oxalic acid cocrystal, and 2:1 olaparib oxalic acid cocrystal were separately placed in a clear glass vial which was then stored under ambient conditions for 6 months. After this time, all the cocrystals remained as white solids with no signs of colour change.

[3] = Dissolution study in simulated intestinal fluid (FaSSIF V2); assay type: physicochemical; details: from four minutes onwards; 50 ml FaSSIF V2, pH 6.5, 37° C.; FIG. 12
Description: For BCS class IV drugs, such as olaparib, where both solubility and permeability are limited, the rate of dissolution of the drug form used can be the controlling factor in the overall absorption and thus the bioavailability of a drug. This becomes even more influential as the dose of a drug increases. Given the high dose of olaparib needed in its current marketed indications it is likely that a high dose may be needed for use in alternative conditions, thus finding a crystalline form of olaparib that has a high dissolution rate is important. A study was, therefore, carried out to examine the rate of dissolution of the 2:3 olaparib oxalic acid cocrystal, 1:1 olaparib oxalic acid cocrystal, and 2:1 olaparib oxalic acid compared with the 1:1 olaparib urea cocrystal of CN 105753789 and the pure crystalline olaparib form A. The dissolution study was carried out using 50 ml simulated intestinal fluid (FaSSIF V2) at pH 6.5 (37° C.) using a quantity of each olaparib form equivalent to 25 mg olaparib. […] Detection and quantification of olaparib was performed by in-situ UV-spectroscopy using a fibre-optic probe, allowing instantaneous data collection from the point of sample introduction. UV absorption data was converted to mg/ml (±0.2 mg/ml) using a previously determined pH dependent molar extinction coefficients to quantitate the amount of dissolved drug.

[4] = Gravimetric Vapour Sorption (GVS) analysis; assay type: physicochemical; details: for polymorphic form conversion or hydrate formation under raised relative humidity levels: GVS; for moisture reversibly adsorbed (GVS): across the 0-90% relative humidity range at 25° C. under nitrogen; for XRPD analysis post GVS analysis: at both 0% RH and 90% RH
Protocol: Gravimetric Vapor Isotherm (GVS) Analysis: Sorption isotherms were obtained using a Hiden Isochema moisture sorption analyser (model IGAsorp), controlled by IGAsorp Systems Software V6.50.48. The sample was maintained at a constant temperature (25° C.) by the instrument controls. The humidity was controlled by mixing streams of dry and wet nitrogen, with a total flow of 250 ml·min^−1. The instrument was verified for relative humidity content by measuring three calibrated Rotronic salt solutions (10-50-88%). The weight change of the sample was monitored as a function of humidity by a microbalance (accuracy +/−0.005 mg). A defined amount of sample was placed in a tared mesh stainless steel basket under ambient conditions. The sample was held at 50% RH for ˜60 minutes and then the initial desorption cycle was initiated. A full experimental cycle typically consisted of three scans (desorption, sorption and desorption) at a constant temperature (25° C.) and 10% RH intervals over a 0-90% range (60 minutes for each humidity level). Data analysis was performed in Microsoft Excel. […] XRPD analysis at both 0% RH and 90% RH post GVS analysis confirmed that the cocrystal was unchanged. […]

[5] = EMA/CHMP/789139/2014; low solubility and low permeability; cited from earlier work
[6] = pH independent; cited from earlier work

Appearance [1]	XRPD analysis [1]	Appearance [2]	XRPD analysis [2]	moisture reversibly adsorbed (GVS) [4]	XRPD analysis post GVS analysis [4]	Compound	stability to polymorph conversion or hydrate formation on long storage (summary of Tables 4 and 5) [1]	polymorphic form conversion or hydrate formation under raised relative humidity levels ([4]; 0-90% RH, 25° C.)	other results
No change	No change	No change	No change	–	–	O=C(O)C(=O)O.O=C(c1cc(Cc2n[nH]c(=O)c3ccccc23)ccc1F)N1CCN(C(=O)C2CC2)CC1 [1:1 olaparib oxalic acid cocrystal]	stable to polymorph conversion or hydrate formation	–	–
No change	No change	No change	No change	0.59 % w/w	unchanged	O=C(O)C(=O)O.O=C(c1cc(Cc2n[nH]c(=O)c3ccccc23)ccc1F)N1CCN(C(=O)C2CC2)CC1.O=C(c1cc(Cc2n[nH]c(=O)c3ccccc23)ccc1F)N1CCN(C(=O)C2CC2)CC1 [2:1 olaparib oxalic acid cocrystal]	stable to polymorph conversion or hydrate formation	does not show any polymorphic form conversion or hydrate formation	–
No change	No change	–	–	0.23 % w/w	unchanged	O=C(O)C(=O)O.O=C(O)C(=O)O.O=C(O)C(=O)O.O=C(c1cc(Cc2n[nH]c(=O)c3ccccc23)ccc1F)N1CCN(C(=O)C2CC2)CC1.O=C(c1cc(Cc2n[nH]c(=O)c3ccccc23)ccc1F)N1CCN(C(=O)C2CC2)CC1 [2:3 olaparib oxalic acid cocrystal]	stable to polymorph conversion or hydrate formation	does not show any polymorphic form conversion or hydrate formation	hygroscopicity ([4]; 0-90% RH, 25° C.): not hygroscopic

Second part, the compound before the results:

Compound	Appearance [1]	XRPD analysis [1]	Appearance [2]	XRPD analysis [2]	moisture reversibly adsorbed (GVS) [4]	XRPD analysis post GVS analysis [4]	stability to polymorph conversion or hydrate formation on long storage (summary of Tables 4 and 5) [1]	polymorphic form conversion or hydrate formation under raised relative humidity levels ([4]; 0-90% RH, 25° C.)	other results
NC(N)=O.O=C(c1cc(Cc2n[nH]c(=O)c3ccccc23)ccc1F)N1CCN(C(=O)C2CC2)CC1 [1:1 olaparib urea cocrystal]	–	–	–	–	–	–	–	–	level of dissolution compared with pure crystalline olaparib form A [3]: only achieves the same level of dissolution as pure crystalline olaparib form A
O=C(c1cc(Cc2n[nH]c(=O)c3ccccc23)ccc1F)N1CCN(C(=O)C2CC2)CC1 [olaparib, 4-[(3-{[4-(cyclopropylcarbonyl)piperazin-1-yl]carbonyl}-4-fluorophenyl)methyl]phthalazin-1(2H)-one]	–	–	–	–	–	–	–	–	BCS class [5]: class IV; also recorded: class 4
O=C(c1cc(Cc2n[nH]c(=O)c3ccccc23)ccc1F)N1CCN(C(=O)C2CC2)CC1 [polymorph A]	–	–	–	–	–	–	–	–	aqueous solubility [6]: ~0.1 mg/mL (≈ 230 µM)
